Source: patent US20030096022A1, “Compositions and methods for the treatment and prevention of cardiovascular diseases and disorders, and for identifying agents therapeutic therefor” (Medlyte, Inc., priority 2000, published 2003)

Tests used:
[1] = test system: Langendorff rat heart model of ischemia; assay: Global ischemia and reperfusion in isolated Langendorff-perfused rat heart (left ventricular pressure); details: 0.1 mM gentamicin recirculated 30 min, 40 min global ischemia, 45 min reperfusion; FIG. 5
Description: The protocol used was essentially that described by Sakai et al. (A device for recording left ventricular contraction and electrocardiogram in nonworking isolated perfused rat heart, Jpn J Pharmacol 28:223-9, 1978), and Zelinski et al., (Phosphatidylcholine biosynthesis in isolated hamster heart, J Biol Chem. 255:11423-8, 1980) with the exception, in the latter instance, that rat studies were used in the experiments described herein instead of hamster hearts.
In brief, rats were anesthetized and their hearts were excised. The isolated hearts were cannulated and attached to Langendorff perfusion apparatus, and perfused with KH buffer. The hearts were allowed to stabilize for 5-10 min. After stabilization, the hearts should be paceable and drip rate should be between 5 and 10 mls per minute.
A small hole was cut in the left atrium of each animal to expose the mitral valve. A deflated transducer balloon was introduced into the left ventricle through the hole in left atrium. The transducer tube was taped and adjusted so that there was no pressure on the heart. Left ventricular pressure was measured and recorded using the MacLab program. […]
After about 45 min., the perfusate was turned off and the ventricular pressure was no longer recorded. […]

[2] = target: tumor necrosis factor alpha (TNFα) released by hypoxic rat cardiomyocytes (rat) (UniProt P16599); assay: cell-based or functional assay
Adult rat cardiomyocytes = assay: Hypoxia-induced sphingosine (SPH) production/release in cultured adult cardiomyocytes, HPLC of extracted sphingolipids; format: cell-based; details: cells pretreated 30 min with TNFRII:Fc 0.5 ng/mL or L-carnitine 20 ng/mL prior to 5 h hypoxia, FIG. 4
Procedure: Adult rat cardiomyocytes were subjected to hypoxic conditions as described above and assayed for their ability to produce sphingolipid bases involved in the sphingomyelin signal transduction cascade.
Cardiomyocytes were cultured on plastic dishes that were placed in a humidified modular incubator chamber (ICN Biomedicals, Aurora, Ohio) pressurized to 0.04-0.05 psi by the particular gas mixture used in the treatment. Warm (37° C.) Tyrode's solution containing 0.2 mM BSA, ampicillin ([…]), kanamycin (100 mg/mL) and fungizone (20 μg/mL) was gassed in a 50 mL sterile conical for 15 minutes with 95%N2/5% CO2 prior to adding the solution to the cultured cells. The pO2 was monitored by a Micro pO2 System oxygen electrode (Lasar Research Labs, Los Angeles, Calif.) and found to be 4.0 PPM for the duration of the hypoxia condition. […] The pH of control and experimental cell cultures was monitored with a micro pH electrode (Beetrode pH Electrodes, Sarasota, Fla.) and remained constant at pH=7.26+/−0.02 for normoxic cells and 7.15+/−0.03 for hypoxic cells throughout the experiment. […]
The HPLC analysis was performed using a Beckman (Fullerton, Calif.) System Gold 118 Solvent Module and 507e Autosampler. A Jasco (Easton, Md.) FP-920 Intelligent Fluorescence Detector was used with an excitation wavelength of 330 nm and emission wavelength of 455 nm. […]

tumor necrosis factor alpha (TNFα) released by hypoxic rat cardiomyocytes (rat), sequence (P16599 80-235 limits assumed): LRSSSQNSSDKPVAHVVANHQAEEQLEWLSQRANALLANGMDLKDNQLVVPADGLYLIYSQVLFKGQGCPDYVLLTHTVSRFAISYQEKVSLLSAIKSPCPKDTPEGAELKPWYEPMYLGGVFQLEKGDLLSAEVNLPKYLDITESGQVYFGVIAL

Gentamicin Sulfate
ischemia and reperfusion injury [1]: mitigated

TNFRII:Fc receptor fragment (from UniProt P20333 23-257) (Fc fusion)
SPH release from hypoxic adult rat cardiomyocytes (HPLC) [2]: 3 fold

C[N+](C)(C)C[C@H](O)CC(=O)[O-] [L-carnitine]
reducing the amount of total SPH (hypoxia-induced production of sphingosine) (Adult rat cardiomyocytes): significantly (p<0.01) reducing | reducing the amount of total SPH (hypoxia-induced production of sphingosine) (Adult rat cardiomyocytes; listed as L-camitine): blocks
